Test systems include SK-OV-3 ovarian; MOLT-4 leukemia; A549 NSCLC; UO-31 renal; OVCAR-5 ovarian; TK-10 renal; HT29 colon; HL-60(TB) leukemia; SR leukemia.
Assay in all cases: inhibition of tumour cell growth, NCI panel, 48 h

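Step 1: Grow cells in 96-well plates. Step 2: Expose to compound for 48 hours at 5 concentrations. Step 3: Interpolate endpoints linearly; if unreached, use highest concentration. The concentration for 50% growth inhibition is given as GI50. Definition used: TGI = concentration required for complete inhibition of growth.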

On to `C1C[OH+]CC[OH+]CCNCC[OH+]CC[OH+]CCN1.[Cl-].[Pt+4]`, for which the GI50 in the test on SK-OV-3 ovarian, in the test with MOLT-4 leukemia, in the test on A549 NSCLC, in the test on UO-31 renal, in the test with OVCAR-5 ovarian and in the test on TK-10 renal was above 100 µM each time. Besides, in the test with HT29 colon, the GI50 is above 100 µM. For the same molecule, the TGI in the test on SK-OV-3 ovarian, in the test with MOLT-4 leukemia, with A549 NSCLC, in the test with UO-31 renal, with OVCAR-5 ovarian and in the test on TK-10 renal was above 100 µM in each case. This molecule showed a TGI in the test on HT29 colon above 100 µM.

With `COc1cc(/C=C\c2ccc(C)cc2)cc(OC)c1OC`, the TGI was 0.51 µM in the test on MOLT-4 leukemia; above 100 µM in the test on A549 NSCLC; 0.0159 µM in the test with HL-60(TB) leukemia; above 91.5 µM with OVCAR-5 ovarian; above 100 µM in the test with TK-10 renal; 0.0917 µM in the test on SR leukemia. Also, the GI50 with TK-10 renal was 25.7 µM.

For the molecule `Nc1nc2c(c(=O)[nH]1)NC(CO)CN2` (centres undefined), the TGI with SK-OV-3 ovarian, in the test with MOLT-4 leukemia, with A549 NSCLC, in the test with HL-60(TB) leukemia, with UO-31 renal and with TK-10 renal was above 100 µM throughout. The molecule further had a TGI in the test on HT29 colon above 100 µM.

`CC(=O)NNc1nc(C)c(C(=O)NNC(=O)C(=O)Nc2c(C)cccc2C)s1`: the TGI is above 100 µM in the test on SK-OV-3 ovarian; 80.1 µM in the test with MOLT-4 leukemia; above 100 µM in the test with A549 NSCLC; 77.6 µM in the test on HL-60(TB) leukemia; above 100 µM in the test with UO-31 renal; above 100 µM with OVCAR-5 ovarian. The TGI with TK-10 renal and in the test on HT29 colon was above 100 µM throughout.

Turning to `Clc1ccc(Cc2nc3ccccc3s2)c(Cl)c1`, the TGI was 43.3 µM in the test with SK-OV-3 ovarian; 41.2 µM in the test with MOLT-4 leukemia; 42.1 µM in the test on A549 NSCLC; 35.3 µM in the test with HL-60(TB) leukemia; 30 µM in the test with UO-31 renal; 38.7 µM in the test on OVCAR-5 ovarian. Further, the TGI with TK-10 renal worked out at 38.4 µM; with HT29 colon, 40.3 µM.

Turning to `O=C(/C=C/c1ccccc1)CC1OC(=O)c2ccccc21` (centres undefined), the TGI in the test on SK-OV-3 ovarian, in the test with MOLT-4 leukemia, with A549 NSCLC, in the test on HL-60(TB) leukemia, in the test on UO-31 renal and with OVCAR-5 ovarian was above 100 µM in each case. Besides, the TGI with TK-10 renal and in the test on HT29 colon was above 100 µM in each case.

`O=C(O)COc1ccc(O)c2c1C(=O)CCCC2=O`: the TGI with SK-OV-3 ovarian, in the test with MOLT-4 leukemia, with A549 NSCLC, in the test on HL-60(TB) leukemia, with UO-31 renal and in the test with OVCAR-5 ovarian was above 100 µM in each case. Moreover, the TGI in the test with TK-10 renal and with HT29 colon was above 100 µM each time.

With `CC(=O)N[C@@H]1C(O)CN2C(=O)C(=O)O[C@H](C(O)CO)[C@@H]12` (some centres undefined), the TGI with SK-OV-3 ovarian, in the test with MOLT-4 leukemia, with A549 NSCLC, with HL-60(TB) leukemia, in the test on UO-31 renal and in the test on OVCAR-5 ovarian was above 100 µM each time. In addition, the TGI with TK-10 renal and in the test with HT29 colon was above 100 µM each time.

As for `COc1cc(/C=C\c2ccccc2)cc(OC)c1OC`, the TGI with MOLT-4 leukemia was 17.2 µM; with A549 NSCLC it was above 80.3 µM; in the test on HL-60(TB) leukemia it was 6.34 µM; in the test on UO-31 renal, 30 µM; with OVCAR-5 ovarian it was 47.3 µM; in the test with TK-10 renal it was above 50.3 µM. In addition, the TGI with SR leukemia turned out to be 26.7 µM; in the test with HT29 colon, 14.1 µM.

As for `CCc1cccc(C(C)C)c1NC(=O)C(=O)CC(=O)c1c(C)n([O-])c2ccccc2[n+]1=O`, the TGI in the test with SK-OV-3 ovarian, in the test on MOLT-4 leukemia, with A549 NSCLC, in the test on HL-60(TB) leukemia, in the test on UO-31 renal and in the test with OVCAR-5 ovarian was above 100 µM throughout. Further, the TGI with TK-10 renal is above 100 µM.

As to `Oc1cc(O)c(Oc2cccc(O)c2O)c(O)c1`, the TGI in the test on SK-OV-3 ovarian, with MOLT-4 leukemia, in the test with A549 NSCLC, in the test with HL-60(TB) leukemia, in the test with UO-31 renal and in the test on OVCAR-5 ovarian was above 100 µM each time. Further, the TGI in the test on TK-10 renal and in the test with HT29 colon was above 100 µM throughout.

Consider `O=C(c1ccccc1)C1CCCCN1C(=O)c1ccccc1` (centres undefined), for which the TGI in the test on SK-OV-3 ovarian, in the test with MOLT-4 leukemia, in the test with A549 NSCLC, in the test on HL-60(TB) leukemia, in the test on UO-31 renal and with TK-10 renal was above 100 µM throughout. The TGI with SR leukemia is above 100 µM.

On to `O=C(c1ccc(Cl)cc1)c1ccc(OCCCCCCCCCCOc2ccc(C(=O)c3ccc(Cl)cc3)cc2)cc1`, for which the TGI in the test on SK-OV-3 ovarian, with MOLT-4 leukemia, in the test on A549 NSCLC, in the test on HL-60(TB) leukemia, in the test on UO-31 renal and in the test on OVCAR-5 ovarian was above 100 µM throughout. Further, the TGI in the test on TK-10 renal and with HT29 colon was above 100 µM in each case.

Consider `O=C(Nc1cccs1)c1c(O)[nH]c(=S)[nH]c1=O`, for which the TGI with SK-OV-3 ovarian, in the test with MOLT-4 leukemia, in the test with A549 NSCLC, in the test with UO-31 renal, in the test on OVCAR-5 ovarian and in the test with TK-10 renal was above 100 µM throughout. This molecule came in with a TGI in the test on SR leukemia above 100 µM.

Turning to `NC1CCCCC1.[O]=[Ge].[O]=[Ge].[O]=[Ge][OH].[O]=[Ge][OH]`, the TGI in the test with MOLT-4 leukemia, in the test with A549 NSCLC, in the test on HL-60(TB) leukemia, in the test on UO-31 renal, in the test with OVCAR-5 ovarian and in the test on TK-10 renal was above 100 µM each time. Besides, the TGI in the test with SR leukemia and in the test with HT29 colon was above 100 µM throughout. Besides, the GI50 with UO-31 renal, in the test with TK-10 renal and in the test with SR leukemia was above 100 µM in each case.

The record behind these values is PubChem BioAssay (NCI).
